Data set [1] deals with SGC-7901. The data set is described as follows: Antiproliferative activity against human SGC-7901 cells assessed as inhibition of cell growth incubated for 72 hrs by MTT assay. The data set is classed as functional, cell-based. Conditions: SGC-7901, 72 h. In general terms: Formazan colour is commonly taken as a measure of viable cells.
For data set [2], the system named is A549. Nature of the data set: Antitumor activity against human A549 cells xenografted in Kunming mouse model assessed as inhibition of tumor growth at 20 mg/kg, iv administered twice daily for 2 weeks relative to control. It counts as functional. Conditions: A549, 336 h. Background: In xenograft studies the graft and the host belong to different species.
The subject of data set [3] is KYSE-150 cell line. The data set is described as follows: Antiproliferative activity against human KYSE-150 cells assessed as inhibition of cell growth incubated for 72 hrs by MTT assay. It counts as functional, cell-based. Conditions: KYSE-150, 72 h, pooled result: one value given for 5 cell lines, strains, targets or settings.
The test system of data set [4] is B16-F10. The data set is described as follows: Antitumor activity against mouse B16-F10 cells implanted in melanoma mouse model assessed as inhibition of tumor growth at 20 mg/kg, po relative to control. The data set is classed as functional.
Data set [5] has as its system PC-9. Nature of the data set: Antitumor activity against human PC-9 cells xenografted in NSG mouse model assessed as inhibition of tumor growth at 25 mg/kg, ip qd administered every day for 7 consecutive days relative to control. The following applies: PC-9, 168 h, time 7 day. The data set is classed as functional.
For data set [6], the system named is 4T1. The data set is described as follows: Antitumor activity against mouse 4T1 cells overexpressing IDO1 implanted in BALB/c mouse model assessed as inhibition of tumor growth at 25 mg/kg, ip qd administered every day for 8 consecutive days and measured after 14 days relative to control. Conditions: 4T1, 336 h, time 14 day. It counts as functional.
Data set [7] has as its system NCI-H211. Nature of the data set: Antiproliferative activity against human NCI-H211 cells assessed as reduction in cell viability by MTS assay. The data set is classed as functional, cell-based.
The test system of data set [8] is MDA-MB-231. Nature of the data set: Antiproliferative activity against human MDA-MB-231 cells assessed as reduction in cell viability by MTS assay. The data set is classed as functional, cell-based.
The test system of data set [9] is A549/TR. Nature of the data set: Antiproliferative activity against taxol-resistant human A549/Taxol cells assessed as inhibition of cell growth incubated for 72 hrs by MTT assay. It counts as functional, cell-based.
For data set [10], the system named is A549. Nature of the data set: Antiproliferative activity against human A549 cells assessed as inhibition of cell growth incubated for 72 hrs by MTT assay. The data set is classed as functional, cell-based. The following applies: A549, 72 h.
Data set [11] deals with HCT-116. The data set is described as follows: Antiproliferative activity against human HCT-116 cells assessed as inhibition of cell growth incubated for 72 hrs by MTT assay. The data set is classed as functional, cell-based. The following applies: HCT-116, 72 h.
The subject of data set [12] is U2OS. Nature of the data set: Antiproliferative activity against human U2OS cells assessed as inhibition of cell growth incubated for 72 hrs by MTT assay. The data set is classed as functional, cell-based.
Data set [13] in a line: Antiproliferative activity against cisplatin-resistant human A549/DDP cells assessed as inhibition of cell growth incubated for 72 hrs by MTT assay. It counts as functional, cell-based.
Data set [14] in a line: Plasma clearance in Albino mouse at 1.0 mg/kg, iv. It counts as ADME, organism-based.
Data set [15] is described as follows: Antiproliferative activity against human Trastuzumab-resistant BT-474 cells assessed as inhibition of cell growth by MTT assay. It counts as functional, cell-based, Trastuzumab-resistant BT-474 cell.
For data set [16], the system named is MCF7. The data set is described as follows: Antiproliferative activity against drug-sensitive human MCF7 cells assessed as inhibition of cell growth by MTT assay. The data set is classed as functional, cell-based.
A short description of data set [17]: Antiproliferative activity against human Tamoxifen-resistant MCF7 cells assessed as inhibition of cell growth by MTT assay. It counts as functional, cell-based.
Data set [18] has as its system SK-BR-3. The data set is described as follows: Antiproliferative activity against drug-sensitive human SK-BR-3 cells assessed as inhibition of cell growth by MTT assay. The data set is classed as functional, cell-based.
A short description of data set [19]: AUC(0 to t) in Albino mouse at 1.0 mg/kg, iv. The following applies: in vivo. The arrangement: dose 1 mg/kg, route iv. It counts as ADME, organism-based.
Data set [20] concerns MDA-MB-231. The data set is described as follows: Antiproliferative activity against drug-sensitive human MDA-MB-231 cells assessed as inhibition of cell growth by MTT assay. It counts as functional, cell-based.
The subject of data set [21] is MCF7. The data set is described as follows: Antitumor activity against human MCF7 cells xenografted in mouse assessed as tumor growth inhibition by measuring T/C ratio at 25 mg/kg, iv. It counts as functional.
Data set [22] can be described thus: Elimination half life in Albino mouse plasma at 1.0 mg/kg, iv. The data set is classed as ADME, organism-based. Conditions: read-out: beta t1/2 (converted).
Data set [23] has as its system BT-474. The data set is described as follows: Antiproliferative activity against drug-sensitive human BT-474 cells assessed as inhibition of cell growth by MTT assay. It counts as functional, cell-based.
The nature of data set [24]: animal or person. Conditions: Mus musculus, Lewis lung carcinoma, 480 h, route ip, time 20 day. It counts as functional.
In data set [25] the test system is A549. The data set is described as follows: Antiproliferative activity against human A549 cells assessed as inhibition of cell growth incubated for 24 hrs by MTT assay. Conditions: A549, 24 h. It counts as functional, cell-based.
Data set [26] is described as follows: Antitumor activity against mouse Lewis lung carcinoma cells implanted in C57BL/6J mouse model assessed as inhibition of tumor growth at 5.0 mg/kg, ip administered alternate days for 20 days in presence of 5.0 mg/kg gefitinib relative to control. It counts as functional. Conditions: 480 h, time 20 day.
Data set [27] deals with OVCAR-8. Nature of the data set: Antitumor activity against human OVCAR-8 cells xenografted in nude mouse assessed as inhibition of tumor growth at 100 mg/kg, IG administered daily for 21 days relative to control. It counts as functional. Conditions: OVCAR-8, po, 504 h, time 21 day.
For data set [28], the system named is SK-OV-3. Nature of the data set: Antiproliferative activity against human SK-OV-3 cells assessed as reduction in cell viability by MTT assay. It counts as functional, cell-based.
Data set [29] relates to OVCAR-8. Nature of the data set: Antiproliferative activity against human OVCAR-8 cells assessed as reduction in cell viability by MTT assay. The data set is classed as functional, cell-based.
Data set [30] deals with Caov-3 cell line. The data set is described as follows: Antiproliferative activity against human Caov-3 cells assessed as reduction in cell viability by MTT assay. It counts as functional, cell-based.
Data set [31] deals with OC-314. The data set is described as follows: Antiproliferative activity against human OC-314 cells assessed as reduction in cell viability by MTT assay. It counts as functional, cell-based.
Data set [32] concerns ECa-109 cell line. The data set is described as follows: Potency index, ratio of 5-fluorouracil IC50 to test compound IC50 for antiproliferative activity against human EC109 cells assessed as inhibition of cell growth incubated for 72 hrs by MTT assay. The data set is classed as functional.
Data set [33] concerns TE-1. The data set is described as follows: Potency index, ratio of 5-fluorouracil IC50 to test compound IC50 for antiproliferative activity against human TE-1 cells assessed as inhibition of cell growth incubated for 72 hrs by MTT assay. It counts as functional.
Data set [34] has as its system ECa-109 cell line. Nature of the data set: Antitumor activity against human EC109 cells xenografted in BALB/c nude mouse model assessed as inhibition of tumor growth at 60 mg/kg, po relative to control. It counts as functional.
Data set [35] concerns KYSE-150 cell line. The data set is described as follows: Potency index, ratio of 5-fluorouracil IC50 to test compound IC50 for antiproliferative activity against human KYSE-150 cells assessed as inhibition of cell growth incubated for 72 hrs by MTT assay. It counts as functional.
Data set [36] has as its system KYSE-510. The data set is described as follows: Potency index, ratio of 5-fluorouracil IC50 to test compound IC50 for antiproliferative activity against human KYSE-510 cells assessed as inhibition of cell growth incubated for 72 hrs by MTT assay. The data set is classed as functional.
The test system of data set [37] is KYSE-270. The data set is described as follows: Potency index, ratio of 5-fluorouracil IC50 to test compound IC50 for antiproliferative activity against human KYSE-270 cells assessed as inhibition of cell growth incubated for 72 hrs by MTT assay. The data set is classed as functional.

We go through ten compounds from ChEMBL document CHEMBL5360538, “Recent updates on 1,2,3-triazole-containing hybrids with in vivo therapeutic potential against cancers: A mini-review” (Eur J Med Chem, 2023).

A word on the IC50: it is the concentration that inhibits the measured activity by half. The inhibition in vivo is the percentage by which the read-out fell short of the control. A word on the clearance: it is the volume of plasma or blood freed of the substance per unit of time. The term AUC(0-t) denotes exposure summed from dosing to a finite time, without extrapolation to infinity.

With `O=c1[nH]cc(F)c(=O)[nH]1` [FLUOROURACIL], the IC50 in data set [1] is 26300 nM; in [3] it was 7730 nM. Besides, the inhibition in vivo at 20 mg/kg in [2] amounted to 64.7%.

On to `C/C(=C(/Cl)c1ccccc1)c1nnc(-c2cn(CCCOc3ccc(C(C)(C)C)cc3)nn2)o1`, for which the inhibition in vivo at 20 mg/kg in [4] was 90%.

With `C#Cc1cccc(Nc2ncnc3cc(OCCOC)c(OCCOC)cc23)c1` [ERLOTINIB], the values for the inhibition in vivo at 25 mg/kg in data set [5] and in [6] were 90% and 36%, respectively.

In the case of `Cc1nnn(C)c1-c1cnc2c3cc4cnn(C)c4cc3n([C@H](c3ccccc3)C3CCOCC3)c2c1`, the IC50 in data set [7] is 1.99 nM; in data set [8], 1.58 nM.

Consider `CC(C)=CC[C@]12OC(C)(C)C3C[C@H](C=C4C(=O)c5c(OCc6cn(CCN7CCOCC7)nn6)cccc5OC431)C2=O`, for which the IC50 in [9], in data set [10], in data set [11], in data set [12] and in data set [13] was 280 nM throughout. Also, the inhibition in vivo at 20 mg/kg in data set [2] turned out to be 71.3%.

In turn, `CCN1CCN(Cc2ccc(Nc3ncc(F)c(-c4cc(F)c5nc(C)n(C(C)C)c5c4)n3)nc2)CC1` [ABEMACICLIB] gave a clearance in [14] of 43 mL/min/kg. For the same compound, the IC50 in data set [15], in [16], in data set [17], in data set [18], in data set [20] and in data set [23] was 153 nM each time. This compound yielded an AUC(0-t) in data set [19] of 487 ng·h/mL. Besides, the T/C in data set [21] was determined as 0.51. Further, the half-life in [22] was 1 h.

`COc1ccc(-c2cn(CC3(C)C=Cc4cc(N)ccc4O3)nn2)cc1` (stereo unspecified): the inhibition in vivo at 5 mg/kg in data set [24] came out at 50%; in [26], 80%. The IC50 in data set [25] came to 2 nM.

For the compound `Cc1nnn(C)c1-c1cnc2c3ccc(C(C)(C)O)cc3n([C@H](c3ccccc3)C3CCOCC3)c2c1` [EZOBRESIB], the IC50 in [7] was 6.57 nM; in data set [8] it was 4.97 nM.

As for `O=S(=O)(NCc1cn(Cc2cccc(Oc3ccccc3)c2)nn1)c1ccc(F)cc1`, in data set [27], the inhibition in vivo at 100 mg/kg amounted to 61.8%. Besides, the IC50 in data set [28], in data set [29], in data set [30] and in data set [31] was 540 nM throughout.

Regarding `COc1cnc(Cn2cc(CNC(=O)c3c(F)c(F)c(F)c(F)c3F)nn2)c(OC)c1`, the “Ratio IC50” value in [32], in [33], in data set [35], in data set [36] and in [37] was 3.1 throughout. The inhibition in vivo at 60 mg/kg in data set [34] turned out to be 60%. Further, in data set [3], the IC50 was 830 nM.
